Experimental data: patent US6319902A, “Peptide derivatives having thiazolyl-alanine residue” (Shionogi & Co., Ltd., priority 1999, dated 2001)

Assays:
Assay type in all cases: in vivo
[1] = tested on: Reserpine-induced hypothermia mice; test: Anti-reserpine action after oral administration of test compounds; conditions: calculated from AUC of body temperature-time profile for 420 min after 10 μmol/kg
Procedure: Anti-recerpine Action After Oral Administration of Test Compounds
Reserpine-induced hypothemia mice (ddY, male, body weight: 30 to 40 g) were prepared by the subcutaneous administration of reserpine in back side of the […] (3 mg/kg) at 18 hours before test compounds administration. Mice with their body temperature about 25° C. were used in the experiment. Test compounds were solubilized in saline and 0.2 ml (10 μmol/kg) of them were administered by sonde for oral administration. After the administration, rectal temperature was measured at, 30, 60, 120, 180, 240, 300, and […]. The area under curve (AUC) of the body temperature-time profile was calculated by the general trapezoidal method. In the control experiment, vehicle (saline) was administered to mice and the rectal temperature was measured by the same protocol. The effective dose, which can increase the average of body temperature at 1° C. for 420 min in reserpine-induced hypothermia mice after oral administration of the test compounds, is calculated by the following equation: [formula]
Effective dose: Dose which can increase the average of body temperatures at 1° C. for 420 min in reserpine-induced hypothermia mice.
AUC (test compounds): The area under curve (AUC) of the body temperature-time profile for 420 min after oral administration of test compounds was calculated by the general trapezoidal method. […]

[2] = tested on: Reserpine-induced hypothermia mice; test: Anti-reserpine action after intravenous and intracerebroventicular administration of test compounds; conditions: for Dose which can increase the average of body temperatures at 1° C. for 180 min in reserpine-induced hypothermia mice, administered intracerebroventicularly: intracerebroventicular, calculated from AUC for 180 min after 0.21 μmol/kg
Procedure: Anti Recerpine Action After Intravenous and Intracerebroventicular Administration of Test Compounds
Recerpine-induced hypothermia mice (ddY, male) were prepared by the administration of reserpine (3 mg/kg) at 18 hours before test compounds administration. Mice with their body temperature about 25° C. were used in the experiment. Test compounds were solubilized in saline and 0.1 ml (1 μmol/kg) of them were administered intravenously and 0.005 ml (0.21 μmol/kg) of them were administered intracerebroventicularly, respectively. After the administration, rectal temperature was measured at 30, 60, 120, and 180 min. The area under curve (AUC) of the body temperature-time profile was calculated by the general trapezoidal method. In the control experiment, vehicle (saline) was administered to mice intravenously or intracerebroventicularly and the rectal temperature was measured by the same protocol. The effective dose, which can increase the average of body temperatures at 1° C. for 180 min in reserpine-induced hypothermia mice after intravenous or intracerebroventicular administration of the test compounds, is calculated by the following equation: [formula]
Effective dose: Dose which can increase the average of body temperatures at 1° C. for 180 min in reserpine-induced hypothermia mice.
AUC (test compounds): The area under curve (AUC) of the body temperature-time profile for 180 min after intravenous or intracerebroventicular administration of test, compounds was calculated by the general trapezoidal method.
AUC (vehicle): The area under curve (AUC) of the body temperature-time profile for 180 min after intravenous or intracerebroventicular administration of saline was calculated by the general trapezoidal method.

[3] = Change of blood glucose levels after administration of the test compounds to rats; conditions: for blood glucose level as a percentage compared to the baseline level (vehicle-treated rats = 100%): 50 μmol/kg intravenously

| SMILES | Dose which can increase the average of body temperatures at 1° C. for 420 min in reserpine-induced hypothermia mice by oral [1] | Dose which can increase the average of body temperatures at 1° C. for 180 min in reserpine-induced hypothermia mice, administered intracerebroventicularly [2] | Dose which can increase the average of body temperatures at 1° C. for 180 min in reserpine-induced hypothermia mice, administered intravenously ([2]; intravenous, calculated from AUC for 180 min after 1 μmol/kg) | blood glucose level as a percentage compared to the baseline level (vehicle-treated rats = 100%) ([3]; Time 0 min) | blood glucose level as a percentage compared to the baseline level (vehicle-treated rats = 100%) ([3]; Time 5 min) | blood glucose level as a percentage compared to the baseline level (vehicle-treated rats = 100%) ([3]; Time 15 min) | blood glucose level as a percentage compared to the baseline level (vehicle-treated rats = 100%) ([3]; Time 30 min) | blood glucose level as a percentage compared to the baseline level (vehicle-treated rats = 100%) ([3]; Time 60 min) | blood glucose level as a percentage compared to the baseline level (vehicle-treated rats = 100%) ([3]; Time 120 min) | blood glucose level as a percentage compared to the baseline level (vehicle-treated rats = 100%) ([3]; Time 180 min) | blood glucose level as a percentage compared to the baseline level (vehicle-treated rats = 100%) ([3]; Time 240 min) | blood glucose level as a percentage compared to the baseline level (vehicle-treated rats = 100%) ([3]; Time 300 min) | blood glucose level as a percentage compared to the baseline level (vehicle-treated rats = 100%) ([3]; Time 360 min) | blood glucose level as a percentage compared to the baseline level (vehicle-treated rats = 100%) ([3]; Time 420 min) | blood glucose level as a percentage compared to the baseline level (vehicle-treated rats = 100%) ([3]; Time 480 min) | acute rise of the blood glucose level and fall by the rebound after administration ([3]; result in words) |
| --- | --- | --- | --- | --- | --- | --- | --- | --- | --- | --- | --- | --- | --- | --- | --- | --- |
| NC(=O)[C@@H]1CCCN1C(=O)[C@H](Cc1cnc[nH]1)NC(=O)[C@@H]1CCC(=O)N1 [TRH, L-pyroglutamyl-L-histidyl-L-prolineamide] | 42.68 µmol/kg | 0.033 µmol/kg | 9.84 µmol/kg | 116.3% | 114.6% | 123.3% | 137.9% | 153.5% | 139.1% | 119.1% | 112.6% | 113.2% | 103.5% | 102.6% | 97.1% | acutely raises up the blood glucose level |
| C[C@H]1OC(=O)N[C@H]1C(=O)N[C@@H](Cc1cscn1)C(=O)N1CCC[C@H]1C(N)=O (mixture of isomers) [Compound I-10, cis-L-5-methyl-2-oxo-oxazolidine-4-yl-carbonyl-3-(4-thiazolyl)-L-alanyl-L-prolineamide] |  | 0.025 µmol/kg |  | 107.7% | 119.9% | 104.3% | 109.1% | 112.1% | 126.5% | 105.3% | 110.9% | 104.0% | 100.4% | 102.6% | 111.8% |  |
